≈ marks a conversion by molar mass, not a printed value.

The MFC is the smallest concentration meeting the test's criterion for killing the fungus. The low end stands for more potent killing, the high end for less potent killing.

In data set [1] the test system is Candida albicans ATCC64124 (azole-resistant). The data set is described as follows: microbe, parasite or virus in culture. The format is cell-based. The following applies: for MFC: ATCC64124; for MIC: ATCC64124, 48 h.
The subject of the next data set is HeLa cells. Kind of data set: Cell viability assay (MTT), cytotoxicity test. The note with it: for toxicity to human cervical cancer cell line HeLa: 1.0 to 1000 μg/mL; for toxicity to human cervical cancer cell line HeLa / Viable Cells Percentage Compared to Control: 48 h; for Viable Cells Percentage Compared to Control / effect on growth of cells (number of viable cells): HeLa; for Viable Cells Percentage Compared to Control: MTT; for effect on growth of cells (number of viable cells): wells treated with compound. The format is cell-based, human. The procedure:
HeLa cells were grown in commercial DMEM 1× (Gibco) with 10% fetal bovine serum (FBS, Gibco), 100 U/mL penicillin, and 100 μg/mL streptomycin at 37° C. and 5% CO2. The cells were allowed to adhere for 24 h before drug treatment.
The cells were seeded in 96-well microtiter plates (10,000/200 μL). After 24 h of incubation in the media, cells were treated with various concentrations of K608, K4608 and K408 (0.0, 1.0, 10.0, 100.0, 1000 μg/mL and Trition 1×) for 48 h. 20 μL of MTT stock solution (5 mg/mL) was added to each well and incubated for 4 h at 37° C. Upon completion of incubation, the media was carefully removed and washed twice with […] of pbs buffer. Then, 200 μL of DMSO was added to each well; agitated on orbital shaker for 15 min., and the absorbance at 570 nm with 670 nm filter was determined with a microplate reader (Synergy H4). The results are expressed as viability compared with that of control. The experiment was carried out in triplicate in three independent experiments.

Data set [2] relates to Fusarium graminearum B4-5A. Kind of data set: microbe, parasite or virus in culture. The format is cell-based. The following applies: Fusarium graminearum, B45A, 48 h.
The subject of data set [3] is azole-resistant Candida albicans ATCC 64124. Kind of data set: Antifungal synergism by checkerboard analysis, K-compound and azole combinations. The format is cell-based. The following applies: Candida albicans, compound alone.
Data set [4] relates to Candida albicans ATCC MYA-2876 (azole sensitive). Kind of data set: Fungal MIC and MFC, microbroth dilution assay (M27-A3). It is filed as cell-based. The note with it: C. albicans MYA2876 (azole sensitive); for MIC: RPMI 1640, 35° C., 48 hours; for MFC: subculture on Sabouraud dextrose agar after MIC test. On the technique in general: Broth dilution looks for growth in wells or tubes with falling amounts of substance.

Data set [5] deals with Staphylococcus aureus ATCC25923. Kind of data set: Bacterial growth inhibition (MIC) test, microtiter plate, CLSI protocol. It is filed as cell-based. The following applies: Staphylococcus aureus, ATCC25923; S. aureus 25923; 37° C., 24 hours; read-out: MIC.
Data set [6] relates to Escherichia coli ATCC 25922. The data set is described as above. The format is cell-based. The note with it: Escherichia coli, ATCC25922; E. coli 25922; Luria-Bertani medium, 37° C., 24 hours; read-out: MIC.

As to `CCCCCCCCOC1[C@@H](N)[C@@H](O)C(O[C@@H]2C(N)CC(N)C(O[C@H]3OC(CN)[C@@H](O)[C@H](O)C3O)[C@@H]2O)O[C@@H]1CO` (stereo partly drawn) [Compound K408], the minimum fungicidal concentration (MFC) in data set [1] worked out at 9.8 µg/mL (≈ 16.4 µM); in data set [4], 2.4 µg/mL (≈ 4.02 µM). The MIC turned out to be 9.8 µg/mL (≈ 16.4 µM) in data set [1]; 31.3 µg/mL (≈ 52.5 µM) in data set [2]; 31.2 µg/mL in data set [3] (ATCC64124, K408 checkerboard table, first of two separate experiments); 31.2 µg/mL in data set [3] (ATCC64124, K408 checkerboard table, second of two separate experiments); 1.2 µg/mL (≈ 2.01 µM) in data set [4]; 125 µg/mL (≈ 209 µM) in data set [5]. Further, the “toxicity to human cervical cancer cell line HeLa” value in the data set with HeLa cells was “not toxic”. Further, the “Viable Cells Percentage Compared to Control” value with HeLa cells (1 μg/mL) was found to be 139.37%; in the data set with HeLa cells (10 μg/mL) it was 156.92%; in the data set on HeLa cells (100 μg/mL), 144.82%; in the data set on HeLa cells (1000 μg/mL), 138.39%. In addition, the “effect on growth of cells (number of viable cells)” value with HeLa cells is reported as “promoted growth of cells”.

Consider `CCCCCCCCOC[C@H]1OC(O[C@@H]2C(N)CC(N)C(O[C@H]3OC(CN)[C@@H](O)[C@H](O)C3O)[C@@H]2O)[C@H](O)[C@H](N)C1OCCCCCCCC` (stereo partly drawn) [Compound K4608], for which the MFC in data set [1] stood at 9.8 µg/mL (≈ 13.8 µM); in data set [4] it was 2.4 µg/mL (≈ 3.39 µM). For the same compound, the MIC in data set [1] was 4.9 to 9.8 µg/mL (≈ 6.91 to 13.8 µM); in data set [2], 15.6 µg/mL (≈ 22 µM); in data set [3] (ATCC64124, K4608 checkerboard table), 31.2 µg/mL; in data set [4], 1.2 to 2.4 µg/mL (≈ 1.69 to 3.39 µM); in data set [5], over 250 µg/mL; in data set [6], over 250 µg/mL. Besides, in the data set with HeLa cells, the “toxicity to human cervical cancer cell line HeLa” value is given as “not toxic”. Also, the “Viable Cells Percentage Compared to Control” value is listed as 124.28% with HeLa cells (1 μg/mL), 149.52% in the data set with HeLa cells (10 μg/mL), 129.86% in the data set on HeLa cells (100 μg/mL) and 122.93% with HeLa cells (1000 μg/mL). For the same compound, the “effect on growth of cells (number of viable cells)” value with HeLa cells is reported as “promoted growth of cells”.

Consider `NC[C@H]1O[C@H](O[C@H]2[C@H](O)[C@@H](O[C@H]3O[C@H](CO)[C@@H](O)[C@H](N)[C@H]3O)[C@H](N)C[C@@H]2N)[C@H](O)[C@@H](O)[C@@H]1O` [Kanamycin, reference compound], for which the MIC in data set [1] was over 500 µg/mL; in data set [2], over 500 µg/mL; in data set [4], 250 to 500 µg/mL (≈ 516 to 1030 µM); in data set [5], 0.5 to 1 µg/mL (≈ 1.03 to 2.06 µM); in data set [6], 1 to 4 µg/mL (≈ 2.06 to 8.26 µM).

The values are drawn from patent publication US20160060285A1, “Aminoglycosides, Methods of Synthesis, and Associated Applications” (UTAH STATE UNIVERSITY, priority 2010, published 2016).
